According to ChEMBL document CHEMBL4340547, “Synthesis and SAR development of quinoline analogs as novel P2X7 receptor antagonists” (Bioorg Med Chem Lett, 2019):

Key:
[1] = target: T1, P2X purinoceptor 7 (Homo sapiens, UniProt Q99572); test: Antagonist activity at human P2X7 receptor expressed in HEK293 cells assessed as inhibition of BzATP-induced YO PRO dye uptake preincubated for 20 mins followed by YO PRO dye and BzATP addition measured after 30 mins by fluorescence assay; assay type: cell-based
T1 sequence (Q99572 whole entry): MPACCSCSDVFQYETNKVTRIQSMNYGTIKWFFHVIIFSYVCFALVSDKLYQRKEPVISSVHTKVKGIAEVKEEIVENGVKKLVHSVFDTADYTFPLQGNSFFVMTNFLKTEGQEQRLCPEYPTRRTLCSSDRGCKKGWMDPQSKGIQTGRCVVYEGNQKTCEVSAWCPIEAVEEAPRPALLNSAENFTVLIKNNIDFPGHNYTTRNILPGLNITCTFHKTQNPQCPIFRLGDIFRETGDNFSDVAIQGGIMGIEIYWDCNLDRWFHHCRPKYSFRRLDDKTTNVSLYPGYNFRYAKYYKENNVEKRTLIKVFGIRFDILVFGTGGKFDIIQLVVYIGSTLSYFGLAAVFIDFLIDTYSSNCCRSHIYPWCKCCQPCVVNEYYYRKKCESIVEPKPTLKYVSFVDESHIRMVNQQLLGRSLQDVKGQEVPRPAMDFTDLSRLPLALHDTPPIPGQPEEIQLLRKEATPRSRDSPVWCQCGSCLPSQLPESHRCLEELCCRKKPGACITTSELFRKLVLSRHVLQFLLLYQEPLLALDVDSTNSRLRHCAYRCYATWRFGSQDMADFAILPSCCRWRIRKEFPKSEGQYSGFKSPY

[2] = target: T1, P2X purinoceptor 7; test: Antagonist activity at P2X7R in LPS-stimulated human THP1 cells assessed as inhibition of BzATP-induced IL-1beta release preincubated for 30 mins followed by BzATP stimulation and measured after 30 mins by sandwich ELISA
[3] = Intrinsic clearance in human liver microsomes; assay type: ADME, Microsome; conditions: read-out: CLH
[4] = Unbound brain to plasma concentration ratio in mouse at 5 mg/kg, po; assay type: ADME, organism-based; conditions: read-out: K(p,uu,brain)
[5] = Intrinsic clearance in mouse liver microsomes; assay type: ADME, Microsome; conditions: read-out: CLH
[6] = Intrinsic clearance in rat liver microsomes; assay type: ADME, Microsome; conditions: read-out: CLH
[7] = test system: MDR; test: Apparent permeability across apical to basolateral side in MDCK cells expressing MDR; assay type: ADME, cell-based, Canis lupus familiaris; conditions: dog, MDCK-MDR1
[8] = test system: MDR; test: Efflux ratio of apparent permeability in MDCK cells expressing MDR; assay type: ADME, cell-based, Canis lupus familiaris; conditions: dog, MDCK-MDR1
[9] = target: T2, P2X purinoceptor 7 (Rattus norvegicus, UniProt Q64663); test: Antagonist activity at rat P2X7 receptor assessed as inhibition of BzATP-induced YO PRO dye uptake preincubated for 20 mins followed by YO PRO dye and BzATP addition measured after 30 mins by fluorescence assay
T2 sequence (Q64663 whole entry): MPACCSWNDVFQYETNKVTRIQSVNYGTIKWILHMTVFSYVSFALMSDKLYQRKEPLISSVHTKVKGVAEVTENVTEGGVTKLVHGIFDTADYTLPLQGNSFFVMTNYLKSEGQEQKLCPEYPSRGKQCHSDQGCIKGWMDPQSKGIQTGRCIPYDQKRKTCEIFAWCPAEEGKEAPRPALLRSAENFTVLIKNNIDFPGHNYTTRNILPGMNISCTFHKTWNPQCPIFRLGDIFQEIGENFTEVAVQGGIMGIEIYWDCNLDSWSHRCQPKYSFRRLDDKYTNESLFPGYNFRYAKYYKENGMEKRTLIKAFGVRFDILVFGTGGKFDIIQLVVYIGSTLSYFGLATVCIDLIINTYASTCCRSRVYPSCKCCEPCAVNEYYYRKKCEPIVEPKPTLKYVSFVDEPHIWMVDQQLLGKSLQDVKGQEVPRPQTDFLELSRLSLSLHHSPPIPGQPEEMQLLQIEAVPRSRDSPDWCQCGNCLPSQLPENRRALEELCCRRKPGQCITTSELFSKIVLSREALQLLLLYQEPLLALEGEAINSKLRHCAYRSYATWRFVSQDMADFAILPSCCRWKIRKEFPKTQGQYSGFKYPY

[10] = target: T3, P2X purinoceptor 7 (Mus musculus, UniProt Q9Z1M0); test: Antagonist activity at mouse P2X7 receptor assessed as inhibition of BzATP-induced YO PRO dye uptake preincubated for 20 mins followed by YO PRO dye and BzATP addition measured after 30 mins by fluorescence assay
T3 sequence (Q9Z1M0 whole entry): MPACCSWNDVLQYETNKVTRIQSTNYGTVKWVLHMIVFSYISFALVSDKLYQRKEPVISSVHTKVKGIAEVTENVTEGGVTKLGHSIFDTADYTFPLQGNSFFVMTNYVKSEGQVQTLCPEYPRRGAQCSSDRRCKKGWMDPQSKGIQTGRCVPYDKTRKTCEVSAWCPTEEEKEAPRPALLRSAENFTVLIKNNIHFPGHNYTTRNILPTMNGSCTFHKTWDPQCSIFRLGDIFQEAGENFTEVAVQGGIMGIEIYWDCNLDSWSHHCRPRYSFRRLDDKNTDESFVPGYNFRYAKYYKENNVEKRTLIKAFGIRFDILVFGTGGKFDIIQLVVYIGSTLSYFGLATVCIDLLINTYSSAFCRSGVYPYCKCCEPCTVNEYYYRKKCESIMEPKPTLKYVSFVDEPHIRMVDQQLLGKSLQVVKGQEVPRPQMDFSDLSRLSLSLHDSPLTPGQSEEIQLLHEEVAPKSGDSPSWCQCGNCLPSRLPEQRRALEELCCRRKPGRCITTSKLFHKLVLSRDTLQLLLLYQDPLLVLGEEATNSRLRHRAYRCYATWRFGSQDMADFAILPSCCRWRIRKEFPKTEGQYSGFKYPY

[11] = target: Voltage-gated inwardly rectifying potassium channel KCNH2 (Homo sapiens, UniProt Q12809); test: Activity at human ERG
[12] = Protein binding in human plasma assessed as unbound fraction; assay type: ADME, cell-free
[13] = Protein binding in mouse plasma assessed as unbound fraction; assay type: ADME, cell-free
[14] = Protein binding in rat plasma assessed as unbound fraction; assay type: ADME, cell-free
[15] = Dose normalized AUC in mouse at 0.5 mg/kg, po; assay type: ADME, organism-based; conditions: in vivo
[16] = Dose normalized AUC in mouse at 0.2 mg/kg, iv; assay type: ADME, organism-based; conditions: in vivo
[17] = Dose normalized Cmax in mouse at 0.5 mg/kg, po; assay type: ADME, organism-based; conditions: in vivo
[18] = Dose normalized Cmax in mouse at 0.2 mg/kg, iv; assay type: ADME, organism-based; conditions: in vivo
[19] = Terminal half life in mouse at 0.2 mg/kg, iv or 0.5 mg/kg, po; assay type: ADME, organism-based; conditions: in vivo, read-out: beta t1/2 (converted)
[20] = Clearance in mouse at 0.2 mg/kg, iv or 0.5 mg/kg, po; assay type: ADME, organism-based; conditions: in vivo
[21] = Volume of distribution in mouse at 0.2 mg/kg, iv or 0.5 mg/kg, po; assay type: ADME, organism-based; conditions: in vivo
[22] = Oral bioavailability in mouse at 0.5 mg/kg; assay type: ADME, organism-based; conditions: in vivo
[23] = AUC in mouse plasma at 5 mg/kg, po; assay type: ADME, organism-based
[24] = AUC in mouse brain at 5 mg/kg, po; assay type: ADME, organism-based
[25] = Protein binding in mouse plasma assessed as unbound fraction at 5 mg/kg, po; assay type: ADME, organism-based
[26] = Protein binding in mouse brain assessed as unbound fraction at 5 mg/kg, po; assay type: ADME, organism-based
[27] = Protein binding in human plasma; assay type: ADME, cell-free; conditions: read-out: PPB
[28] = Protein binding in mouse plasma; assay type: ADME, cell-free; conditions: read-out: PPB
[29] = Protein binding in rat plasma; assay type: ADME, cell-free; conditions: read-out: PPB

Chain of Voltage-gated inwardly rectifying potassium channel KCNH2 (Q12809 whole entry): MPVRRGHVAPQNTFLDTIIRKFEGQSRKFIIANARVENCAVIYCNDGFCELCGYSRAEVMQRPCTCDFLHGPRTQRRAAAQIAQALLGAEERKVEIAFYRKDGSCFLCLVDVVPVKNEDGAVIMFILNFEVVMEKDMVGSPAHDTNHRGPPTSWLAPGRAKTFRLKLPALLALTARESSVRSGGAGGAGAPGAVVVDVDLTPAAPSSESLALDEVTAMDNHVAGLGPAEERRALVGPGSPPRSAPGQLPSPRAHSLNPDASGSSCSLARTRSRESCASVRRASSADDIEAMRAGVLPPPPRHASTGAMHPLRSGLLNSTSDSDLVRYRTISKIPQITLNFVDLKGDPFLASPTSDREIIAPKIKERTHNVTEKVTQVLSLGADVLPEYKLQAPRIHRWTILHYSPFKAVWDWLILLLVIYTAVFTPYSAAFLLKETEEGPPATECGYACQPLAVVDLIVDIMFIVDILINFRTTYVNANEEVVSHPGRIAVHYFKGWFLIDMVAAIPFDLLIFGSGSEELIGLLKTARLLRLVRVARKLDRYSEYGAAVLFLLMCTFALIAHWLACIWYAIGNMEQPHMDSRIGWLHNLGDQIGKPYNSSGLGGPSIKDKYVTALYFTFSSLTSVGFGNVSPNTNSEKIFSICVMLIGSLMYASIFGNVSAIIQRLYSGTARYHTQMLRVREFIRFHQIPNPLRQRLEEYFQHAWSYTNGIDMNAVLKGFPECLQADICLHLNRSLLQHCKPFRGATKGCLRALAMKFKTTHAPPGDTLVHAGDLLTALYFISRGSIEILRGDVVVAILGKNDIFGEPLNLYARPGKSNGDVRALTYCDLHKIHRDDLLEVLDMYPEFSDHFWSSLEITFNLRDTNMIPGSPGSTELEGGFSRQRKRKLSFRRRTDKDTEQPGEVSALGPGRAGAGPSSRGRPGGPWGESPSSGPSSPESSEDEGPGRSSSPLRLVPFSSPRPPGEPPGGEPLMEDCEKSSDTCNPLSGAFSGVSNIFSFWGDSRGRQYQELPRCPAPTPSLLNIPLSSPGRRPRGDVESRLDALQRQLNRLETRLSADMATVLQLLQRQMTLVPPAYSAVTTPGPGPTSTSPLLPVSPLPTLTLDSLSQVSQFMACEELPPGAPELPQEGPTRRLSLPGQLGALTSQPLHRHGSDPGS

| SMILES | IC50 [1] [nM] | IC50 [2] [nM] | microsomal CLint [3] [µL/min/mg] | microsomal CLint [5] [µL/min/mg] | microsomal CLint [6] [µL/min/mg] | Papp A→B [7] [×10⁻⁶ cm/s] | efflux ratio [8] | IC50 [9] [nM] | IC50 [10] [nM] | further results |
| --- | --- | --- | --- | --- | --- | --- | --- | --- | --- | --- |
| CC1(C)OB(C2=CCCC2)OC1(C)C | 31 | 75 |  |  |  |  |  |  |  |  |
| O=C(NCC1(O)CCCC(F)(F)C1)c1c(Cl)ccc2nc(N3CC[C@H](F)C3)ccc12 (some centres undefined) | 18 | 26.7 | 20 | 34 | 23 | 8.9 to 9 | 6.3 | 9400 | 6730 | Kp uu [4]: 0.13; Activity [11]: > 30 µM; fraction unbound [12]: 0.098; fraction unbound [13]: 0.079; fraction unbound [14]: 0.089; AUC/dose [15]: 143 ng·h/mL; AUC/dose [16]: 451 ng·h/mL; Cmax/dose [17]: 160 ng/mL; Cmax/dose [18]: 738 ng/mL; half-life [19]: 25.8 min; clearance [20]: 36.8 mL/min/kg; Vd [21]: 1.19 L/kg; bioavailability [22]: 32%; AUC [23]: 136 ng·h/mL; AUC [24]: 12.6 ng·h/mL; fraction unbound [25]: 0.079; fraction unbound [26]: 0.11; fraction unbound [27]: 0.03 to 0.1; fraction unbound [28]: 0.03 to 0.1; fraction unbound [29]: 0.03 to 0.1 |
| O=C(NCC1CCC(F)(F)CC1)c1c(Cl)ccc2nc(C3CCCC3)ccc12 | 94 | 160 |  |  |  |  |  |  |  |  |
| O=C(NCC1CCC(F)(F)CC1)c1c(Cl)ccc2nc(N3CCCC3)ccc12 | 37 | 108 to 110 | 87 | 49 | 57 | 31.8 | 1.2 |  |  |  |
| O=C(NCC1CCC(F)(F)CC1)c1c(Cl)ccc2nc(NCCO)ccc12 | 72 | 76 |  |  |  |  |  |  |  |  |
| CN(C)[C@@H]1CCN(c2ccc3c(C(=O)NCC4CCC(F)(F)CC4)c(Cl)ccc3n2)C1 | 27 | 40 | 45 | 50 | 22 | 6.2 | 7.2 |  |  |  |
| O=C(NCC1CCC(F)(F)CC1)c1c(Cl)ccc2nc(N3CC[C@@H](F)C3)ccc12 | 19 | 104 | 12 | 10 | 31 | 18.4 | 0.69 |  |  |  |
| C[C@H]1CCC[C@@](O)(CNC(=O)c2c(Cl)ccc3nc(N4CC[C@@H](F)C4)ccc23)C1 | 4.5 | 24.8 | 21 | 65 | 23 | 8.9 | 4.3 | 640 | 1400 |  |
| C[C@@H]1CCC[C@@](O)(CNC(=O)c2c(Cl)ccc3nc(N4CCC(N(C)C)C4)ccc23)C1 (some centres undefined) | 3.6 | 6 | 44 | 52 | 32 | 1.4 | 39 | 549 | 2000 |  |
